Results: paper PMC6798786 (Brain Communications, 2019)
Counter-ions that a name gives are not always drawn. Like-named read-outs stand apart in the source and are kept apart here.

Legend:
[1] = tested on: scn1lab mutant zebrafish larvae; assay: toxicity check of larvae after 90 min drug exposure (heartbeat, escape response); type: in vivo, Danio rerio; conditions: 100 µM or 250 µM; 90 min exposure
Experimental: For locomotion studies, zebrafish larvae (5 days post-fertilization) were placed into a single well of a clear flat-bottomed 96-well microplate containing embryo media. Sex determination is not possible at this stage of development. All drug screening experiments were conducted in an unbiased manner by investigators blinded to the test compounds and all files coded for post hoc analysis. The 96-well plate containing larvae was then placed inside a DanioVision box where they were allowed to acclimate (20 min; room temperature). EthoVision XT software (DanioVision, Noldus Information Technology) was used to obtain locomotion plots (10 min in duration). […] All locomotion plots were analysed for distance travelled (in millimetres) and mean velocity (in millimetres per second). After 90 min of drug exposure larvae were examined for toxic side-effects. Compounds that decreased or stopped the larva heartbeat, or reduced or eliminated the escape response when touched, were considered toxic.

human 5-HT2AR = human 5-HT2AR (Homo sapiens, UniProt P28223); assay: radioligand binding (NIMH PDSP)
Experimental: (§1) All in vitro binding assay and Ki data studies were performed by the US National Institute of Mental Health Psychoactive Drug Screening Program (NIMH PDSP). For these studies, drugs were screened against recombinant, stably expressed human 5-HT2AR, 5-HT2BR, 5-HT2CR and H1, as described at https://pdspdb.unc.edu/pdspWeb/ ([Besnard et al., 2012]).

human 5-HT2BR = human 5-HT2BR (Homo sapiens, UniProt P41595); assay: radioligand binding (NIMH PDSP); conditions: read-out: Ki 5-HT2BR
Experimental: as §1

human 5-HT2CR [2] = target: T1, human 5-HT2CR (Homo sapiens, UniProt P28335); assay: radioligand binding (NIMH PDSP)
T1 sequence (P28335 33-458): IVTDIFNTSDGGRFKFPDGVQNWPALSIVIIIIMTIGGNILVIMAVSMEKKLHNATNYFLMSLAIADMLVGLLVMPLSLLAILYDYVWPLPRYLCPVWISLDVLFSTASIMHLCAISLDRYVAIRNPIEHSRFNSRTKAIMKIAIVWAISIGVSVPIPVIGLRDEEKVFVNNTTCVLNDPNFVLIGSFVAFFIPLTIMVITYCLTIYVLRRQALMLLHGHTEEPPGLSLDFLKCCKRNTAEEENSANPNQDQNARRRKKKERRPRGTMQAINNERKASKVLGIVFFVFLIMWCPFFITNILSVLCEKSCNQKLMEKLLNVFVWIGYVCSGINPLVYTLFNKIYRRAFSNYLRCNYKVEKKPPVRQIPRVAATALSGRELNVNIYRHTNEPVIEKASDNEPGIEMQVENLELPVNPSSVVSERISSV
Experimental: as §1

human H1 = human H1 (Homo sapiens, UniProt P35367); assay: radioligand binding (NIMH PDSP); conditions: read-out: Ki H1
Experimental: as §1

scn1lab mutant zebrafish = assay: locomotion (mean swim velocity) seizure-like behaviour assay in scn1lab mutant zebrafish larvae; type: in vivo, Danio rerio; conditions: for change in vivo at 100 µM / change in vivo at 250 µM: Danio rerio; for effect on seizure-like swim behaviour, commercially available compounds: three concentrations, 30 and 90 min exposure
Experimental: For locomotion studies, zebrafish larvae (5 days post-fertilization) were placed into a single well of a clear flat-bottomed 96-well microplate containing embryo media. Sex determination is not possible at this stage of development. All drug screening experiments were conducted in an unbiased manner by investigators blinded to the test compounds and all files coded for post hoc analysis. The 96-well plate containing larvae was then placed inside a DanioVision box where they were allowed to acclimate (20 min; room temperature). EthoVision XT software (DanioVision, Noldus Information Technology) was used to obtain locomotion plots (10 min in duration). Seizure scoring was performed, as described ([Baraban et al., 2005]). All locomotion plots were analysed for distance travelled (in millimetres) and mean velocity (in millimetres per second). After 90 min of drug exposure larvae were examined for toxic side-effects. Compounds that decreased or stopped the larva heartbeat, or reduced or eliminated the escape response when touched, were considered toxic.
For behaviour analysis, the threshold for a change in mean swim velocity ≥40% is considered significant (>1.5× SD of 250 control treated scn1lab). Unless otherwise indicated, all data in this manuscript are presented as the mean ± standard error of the mean. […] Statistically significant differences are indicated with asterisks (*P < 0.05; **P < 0.01; ***P < 0.001). […]

human 5-HT2CR [3] = target: T1, human 5-HT2CR; conditions: commercially available compounds known to bind 5-HT2BR; ref Roth et al., 2000; read-out: 5-HT2CR (nM), Table S3; cited from earlier work
[4] = recombinant, stably expressed human receptor, clemizole analogues
[5] = read-out: % change in velocity, individual larva 1 (heat map)
[6] = read-out: % change in velocity, individual larva 2 (heat map)
[7] = read-out: % change in velocity, individual larva 3 (heat map)
[8] = read-out: % change in velocity, individual larva 4 (heat map)
[9] = read-out: % change in velocity, individual larva 5 (heat map)
[10] = read-out: % change in velocity, individual larva 6 (heat map)
[11] = read-out: mean velocity change from six fish, Trial 1

Chain of human 5-HT2AR (P28223 whole entry): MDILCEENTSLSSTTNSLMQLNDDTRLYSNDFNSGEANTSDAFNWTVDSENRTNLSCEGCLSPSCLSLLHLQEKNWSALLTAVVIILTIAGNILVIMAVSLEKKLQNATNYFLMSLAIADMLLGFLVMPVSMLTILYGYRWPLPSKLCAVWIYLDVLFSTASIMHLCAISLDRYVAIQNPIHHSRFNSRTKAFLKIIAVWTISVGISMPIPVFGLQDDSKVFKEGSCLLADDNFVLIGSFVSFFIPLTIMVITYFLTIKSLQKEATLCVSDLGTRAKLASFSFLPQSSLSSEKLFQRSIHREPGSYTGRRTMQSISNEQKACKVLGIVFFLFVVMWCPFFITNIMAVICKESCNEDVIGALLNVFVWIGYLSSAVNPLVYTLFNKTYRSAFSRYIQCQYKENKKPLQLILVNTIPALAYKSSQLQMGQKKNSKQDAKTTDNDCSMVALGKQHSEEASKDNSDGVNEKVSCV
Chain of human 5-HT2BR (P41595 whole entry): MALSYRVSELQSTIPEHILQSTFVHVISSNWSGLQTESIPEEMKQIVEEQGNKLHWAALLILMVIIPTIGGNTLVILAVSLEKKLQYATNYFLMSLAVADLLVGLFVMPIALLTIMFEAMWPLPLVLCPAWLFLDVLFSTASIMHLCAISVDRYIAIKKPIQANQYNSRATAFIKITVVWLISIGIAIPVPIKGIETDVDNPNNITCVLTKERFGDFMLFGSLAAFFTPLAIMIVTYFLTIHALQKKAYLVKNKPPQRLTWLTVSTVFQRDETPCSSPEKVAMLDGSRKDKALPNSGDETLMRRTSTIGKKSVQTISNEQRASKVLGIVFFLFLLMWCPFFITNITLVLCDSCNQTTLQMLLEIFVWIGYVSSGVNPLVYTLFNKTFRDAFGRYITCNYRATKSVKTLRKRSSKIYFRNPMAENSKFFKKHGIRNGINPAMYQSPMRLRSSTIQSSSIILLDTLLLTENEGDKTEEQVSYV
Chain of human H1 (P35367 whole entry): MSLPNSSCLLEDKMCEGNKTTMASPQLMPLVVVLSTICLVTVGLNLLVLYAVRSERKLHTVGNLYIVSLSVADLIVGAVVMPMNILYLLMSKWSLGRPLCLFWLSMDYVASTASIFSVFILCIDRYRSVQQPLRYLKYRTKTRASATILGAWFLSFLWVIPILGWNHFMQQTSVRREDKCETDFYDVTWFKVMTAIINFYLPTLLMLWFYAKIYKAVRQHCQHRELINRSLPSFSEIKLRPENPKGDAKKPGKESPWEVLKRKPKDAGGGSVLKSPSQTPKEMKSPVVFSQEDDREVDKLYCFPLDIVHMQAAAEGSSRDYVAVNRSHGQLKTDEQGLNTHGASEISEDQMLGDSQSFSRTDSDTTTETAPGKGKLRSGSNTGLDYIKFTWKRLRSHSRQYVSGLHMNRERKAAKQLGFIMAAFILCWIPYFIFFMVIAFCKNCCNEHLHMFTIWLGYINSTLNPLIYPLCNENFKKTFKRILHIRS

Row | SMILES | toxicity in initial analogue screening [1] | Ki (human 5-HT2AR; [4]) [nM] | Ki (human 5-HT2BR; [4]) [nM] | Ki (human 5-HT2CR [2]; [4]) [nM] | Ki (human H1; [4]) [nM] | effect on seizure-like swim behaviour, commercially available compounds (scn1lab mutant zebrafish) | also measured
1 | Clc1ccc(Cn2c(CN3CCOCC3)nc3ccccc32)cc1 [Compound 23] | toxic | > 10000 | 515 | > 10000 | 34 | – | –
2 | CCN(CC)Cc1nc2ccccc2n1Cc1ccc(Cl)cc1 [Compound 24] | toxic | – | – | – | – | – | change in vivo at 100 µM (scn1lab mutant zebrafish; [5]): 67.6%; change in vivo at 250 µM (scn1lab mutant zebrafish; [5]): -100%; change in vivo at 100 µM (scn1lab mutant zebrafish; [6]): 330%; change in vivo at 250 µM (scn1lab mutant zebrafish; [6]): -100%; change in vivo at 100 µM (scn1lab mutant zebrafish; [7]): -70.1%; change in vivo at 250 µM (scn1lab mutant zebrafish; [7]): -90%; change in vivo at 100 µM (scn1lab mutant zebrafish; [8]): -28%; change in vivo at 250 µM (scn1lab mutant zebrafish; [8]): -100%; change in vivo at 100 µM (scn1lab mutant zebrafish; [9]): -30.1%; change in vivo at 250 µM (scn1lab mutant zebrafish; [9]): -100%; change in vivo at 100 µM (scn1lab mutant zebrafish; [10]): -3.9%; change in vivo at 250 µM (scn1lab mutant zebrafish; [10]): -100%; change in vivo at 100 µM (scn1lab mutant zebrafish; [11]): 3.5%; change in vivo at 250 µM (scn1lab mutant zebrafish; [11]): -98.7%; change in vivo at 100 µM (scn1lab mutant zebrafish; read-out: mean velocity change from six fish, Trial 2): 3.5%; Ki (human 5-HT2AR): 1260 nM; Ki (human 5-HT2BR): 115 nM; Ki (human 5-HT2CR [2]): 1410 nM; Ki (human H1): 3.7 nM
3 | CN1CCN(Cc2nc3ccccc3n2Cc2ccc(Cl)cc2)CC1 [Compound 26] | – | 316 | 20 | 313 | 1.2 | – | –
4 | FC1(F)CCN(Cc2nc3ccccc3n2Cc2ccc(Cl)cc2)CC1 [Compound 27] | toxic | > 10000 | > 10000 | 7150 | 442 | – | –
5 | Clc1ccc(Cn2c(CN3CCSC3)nc3ccccc32)cc1 [Compound 28] | – | > 10000 | 464 | 1080 | 44 | – | –
6 | CN1CCc2cccc3c2[C@H]1Cc1ccc(O)c(O)c1-3 [apomorphine, (−)-Apomorphine hydrochloride, reference compound] | – | – | – | – | – | significantly increased mean swim velocity | –
7 | CC(C)C[C@H]1C(=O)N2CCC[C@H]2[C@]2(O)O[C@](NC(=O)[C@@H]3C=C4c5cccc6[nH]c(Br)c(c56)C[C@H]4N(C)C3)(C(C)C)C(=O)N12 [bromocriptine, Bromocriptine mesylate, reference compound] | – | – | – | – | – | – | effect on seizure-like swim behaviour at 10 µM (scn1lab mutant zebrafish; 10 µM): significantly reduced seizure-like swim behaviour
8 | Cl.Clc1cccc(N2CCNCC2)c1 [m-CPP, reference compound] | – | – | – | – | – | biphasic response | –
9 | CC(N)Cc1c[nH]c2ccc(OCc3cccs3)cc12 (stereo not shown) [reference compound] | – | – | – | – | – | failed to reach our significance threshold | Ki (human 5-HT2CR [3]): 115 nM
